Results as given in ChEMBL document CHEMBL5036359, “Repositioning Food and Drug Administration-Approved Drugs for Inhibiting Biliverdin IXβ Reductase B as a Novel Thrombocytopenia Therapeutic Target” (J Med Chem, 2022).

Assays:
[1] = molecular target: T1, Flavin reductase (NADPH) (Homo sapiens) (UniProt P30043); test: Binding affinity to human N-terminal His6-tagged and thrombin cleavage fused BLVRB expressed in Escherichia coli BL21 (DE3) assessed as change in entropy by isothermal titration calorimetry
T1 sequence (whole entry): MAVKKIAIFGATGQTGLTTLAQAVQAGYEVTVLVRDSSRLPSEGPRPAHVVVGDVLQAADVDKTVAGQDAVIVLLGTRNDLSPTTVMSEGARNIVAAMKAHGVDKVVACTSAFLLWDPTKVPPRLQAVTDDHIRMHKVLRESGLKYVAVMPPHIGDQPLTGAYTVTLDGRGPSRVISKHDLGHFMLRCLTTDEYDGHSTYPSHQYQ

[2] = molecular target: T1, Flavin reductase (NADPH) (Homo sapiens); test: Binding affinity to human N-terminal His6-tagged and thrombin cleavage fused BLVRB expressed in Escherichia coli BL21 (DE3) assessed as change in enthalpy by isothermal titration calorimetry
[3] = molecular target: T1, Flavin reductase (NADPH) (Homo sapiens); test: Binding affinity to human N-terminal His6-tagged and thrombin cleavage fused BLVRB expressed in Escherichia coli BL21 (DE3) assessed as change in gibbs free energy by isothermal titration calorimetry
Flavin reductase (NADPH) = molecular target: T2, Flavin reductase (NADPH) (Homo sapiens, UniProt P30043); test: Binding affinity to human N-terminal His6-tagged and thrombin cleavage fused BLVRB expressed in Escherichia coli BL21 (DE3) assessed as dissociation constant by isothermal titration calorimetry
T2 sequence (P30043 whole entry): T1 sequence (whole entry)

Row | SMILES | TdeltaS [1] | deltaH [2] | deltaG [3] | Kd (Flavin reductase (NADPH))
1 | CC1(C)CCC(C)(C)c2cc(NC(=O)c3ccc(C(=O)O)cc3)ccc21 | 3.5 kcal/mol | -4.49 kcal/mol | -7.99 kcal/mol | –
2 | O=C(O)c1cccc(-c2noc(-c3ccccc3F)n2)c1 | -1.83 kcal/mol | -11 kcal/mol | -9.13 kcal/mol | 200 nM
3 | O=C(O)c1c(Cl)c(Cl)c(Cl)c(Cl)c1-c1c2cc(Br)c(=O)c(Br)c-2oc2c(Br)c(O)c(Br)cc12 | 4.12 kcal/mol | -3.88 kcal/mol | -8 kcal/mol | 1360 nM
4 | Cc1nc(-c2ccc(OCC(C)C)c(C#N)c2)sc1C(=O)O [FEBUXOSTAT] | 2.14 kcal/mol | -5.75 kcal/mol | -7.9 kcal/mol | 1630 nM
5 | O=C1OC2(c3ccccc31)c1cc(I)c(O)c(I)c1Oc1c2cc(I)c(O)c1I [ERYTHROSINE] | 2.91 kcal/mol | -6.38 kcal/mol | -9.28 kcal/mol | 160 nM
6 | O=C(O)c1cc(/N=N/c2ccc(S(=O)(=O)Nc3ccccn3)cc2)ccc1O | -0.76 kcal/mol | -9.43 kcal/mol | -8.67 kcal/mol | –
7 | O=C(O)c1ccc(-n2nc(-c3ccccc3O)nc2-c2ccccc2O)cc1 [DEFERASIROX] | 0.55 kcal/mol | -7.32 kcal/mol | -7.87 kcal/mol | 1710 nM
